Experimental data as given in US9586968B2, “Bicycloamine-substituted-N-benzenesulfonamide compounds with selective activity in voltage-gated sodium channels” (Merck Sharp & Dohme Corp., priority 2013, dated 2017).

Columns and labels:
human Nav1.7 = biological target: T1, human Nav1.7 (Homo sapiens, UniProt Q15858); assay: PatchXpress automated patch-clamp, inactivated state block of Nav1.7; assay type: cell-based; conditions: channels stably expressed in HEK 293 cells, 22° C., read-out: potency for the Nav 1.7 sodium ion channel (as measured by PatchXpress)
T1 construct: expressed in transfected cells
T1 sequence (Q15858 whole entry): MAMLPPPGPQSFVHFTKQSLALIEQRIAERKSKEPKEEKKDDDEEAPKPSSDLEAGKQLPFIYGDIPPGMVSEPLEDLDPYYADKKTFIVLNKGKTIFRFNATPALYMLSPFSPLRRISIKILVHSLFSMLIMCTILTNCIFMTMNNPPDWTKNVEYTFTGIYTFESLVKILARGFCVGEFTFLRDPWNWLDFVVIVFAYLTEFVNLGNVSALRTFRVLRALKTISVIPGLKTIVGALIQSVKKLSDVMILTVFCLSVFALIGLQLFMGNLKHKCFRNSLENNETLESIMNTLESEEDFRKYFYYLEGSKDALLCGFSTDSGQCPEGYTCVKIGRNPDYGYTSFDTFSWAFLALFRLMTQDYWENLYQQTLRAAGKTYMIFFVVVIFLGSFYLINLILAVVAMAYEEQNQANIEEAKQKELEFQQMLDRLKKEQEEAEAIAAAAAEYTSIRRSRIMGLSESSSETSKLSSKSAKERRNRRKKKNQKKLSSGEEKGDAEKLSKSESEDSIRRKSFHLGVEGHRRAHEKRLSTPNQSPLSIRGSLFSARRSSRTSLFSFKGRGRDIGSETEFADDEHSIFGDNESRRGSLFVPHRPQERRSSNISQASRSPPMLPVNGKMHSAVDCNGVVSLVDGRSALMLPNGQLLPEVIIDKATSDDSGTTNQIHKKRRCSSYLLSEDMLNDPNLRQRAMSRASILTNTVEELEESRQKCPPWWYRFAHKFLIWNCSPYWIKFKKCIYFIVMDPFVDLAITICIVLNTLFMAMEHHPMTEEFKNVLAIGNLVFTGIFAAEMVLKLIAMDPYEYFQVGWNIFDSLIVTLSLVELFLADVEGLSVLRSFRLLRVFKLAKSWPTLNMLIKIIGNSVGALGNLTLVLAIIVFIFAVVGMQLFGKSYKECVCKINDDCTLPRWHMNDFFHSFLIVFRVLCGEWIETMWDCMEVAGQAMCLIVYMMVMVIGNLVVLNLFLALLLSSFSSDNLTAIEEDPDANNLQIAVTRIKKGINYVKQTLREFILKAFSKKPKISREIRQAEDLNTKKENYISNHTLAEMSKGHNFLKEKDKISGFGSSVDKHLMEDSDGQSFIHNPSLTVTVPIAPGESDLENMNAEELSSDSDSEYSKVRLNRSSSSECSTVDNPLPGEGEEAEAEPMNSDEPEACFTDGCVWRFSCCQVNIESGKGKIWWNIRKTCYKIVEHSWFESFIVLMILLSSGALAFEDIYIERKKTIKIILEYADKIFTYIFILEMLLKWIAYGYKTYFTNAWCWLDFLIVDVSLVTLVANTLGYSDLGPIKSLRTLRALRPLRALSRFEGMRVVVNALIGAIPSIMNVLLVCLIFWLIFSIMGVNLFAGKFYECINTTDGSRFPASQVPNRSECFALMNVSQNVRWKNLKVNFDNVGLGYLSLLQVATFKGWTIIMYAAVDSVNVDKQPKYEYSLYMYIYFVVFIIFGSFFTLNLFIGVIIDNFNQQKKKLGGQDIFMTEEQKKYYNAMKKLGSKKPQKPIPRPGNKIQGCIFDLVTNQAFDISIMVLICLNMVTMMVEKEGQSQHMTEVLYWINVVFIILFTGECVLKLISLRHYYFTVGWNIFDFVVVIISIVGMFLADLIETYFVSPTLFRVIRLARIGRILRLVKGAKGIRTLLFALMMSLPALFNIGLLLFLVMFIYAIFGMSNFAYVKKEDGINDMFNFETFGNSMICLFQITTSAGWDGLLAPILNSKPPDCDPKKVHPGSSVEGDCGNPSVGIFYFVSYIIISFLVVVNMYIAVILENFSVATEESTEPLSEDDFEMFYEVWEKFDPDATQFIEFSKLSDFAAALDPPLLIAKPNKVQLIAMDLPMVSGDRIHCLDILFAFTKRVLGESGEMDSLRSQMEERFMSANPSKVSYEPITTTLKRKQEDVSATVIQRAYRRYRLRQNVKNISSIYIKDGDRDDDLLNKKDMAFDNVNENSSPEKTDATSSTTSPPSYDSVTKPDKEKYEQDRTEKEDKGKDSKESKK
Experimental: (§1) Compounds were tested on human Nav1.7 and Nav1.5 channels stably expressed in HEK 293 cells. Activity toward Nav 1.7 and Nav 1.5 channels was assessed using the following assay methodology.
(§2) Sodium Current Measurements on the PatchXpress 7000®:
(§3) To measure inactivated state block of sodium channels, test compounds were characterized in an automated PatchXpress® assay (Molecular Devices) using a double-pulse protocol on human Nav1.7 and Nav1.5 channels stably expressed in HEK 293 cells. Cells were held at a potential 20 mV negative to V0.5 inact. An 8000 ms pre-pulse 7 mV positive to V0.5 inact was given followed by a hyperpolarizing 2 ms pulse to −120 mV and a 20 ms test pulse to −20 mV. Protocol was applied to cells in the absence, presence of compound and after washout. The temperature of PatchXpress instruments was maintained at 22° C. The following recording solutions were used. Internal solution (mM): 30 CsCl, 5 HEPES, 10 EGTA, 120 CsF, 5 NaF, 2 MgCl2. External solution (mM): 120 NMDG, 40 NaCl, 1 KCl, 0.5 MgCl2, 5 HEPES, 2.7 CaCl2.
(§4) For all electrophysiology experiments, offline analysis was used to correct for current rundown and to determine percent inhibition as a function of drug concentration. IC50 values were determined by fitting to the Hill equation.

human Nav1.5 = biological target: T2, human Nav1.5 (Homo sapiens, UniProt Q14524); assay: PatchXpress automated patch-clamp, inactivated state block of Nav1.5 (selectivity); assay type: cell-based; conditions: determined by PatchXpress measurement, HEK 293 cells
T2 construct: expressed in transfected cells
T2 sequence (Q14524 whole entry): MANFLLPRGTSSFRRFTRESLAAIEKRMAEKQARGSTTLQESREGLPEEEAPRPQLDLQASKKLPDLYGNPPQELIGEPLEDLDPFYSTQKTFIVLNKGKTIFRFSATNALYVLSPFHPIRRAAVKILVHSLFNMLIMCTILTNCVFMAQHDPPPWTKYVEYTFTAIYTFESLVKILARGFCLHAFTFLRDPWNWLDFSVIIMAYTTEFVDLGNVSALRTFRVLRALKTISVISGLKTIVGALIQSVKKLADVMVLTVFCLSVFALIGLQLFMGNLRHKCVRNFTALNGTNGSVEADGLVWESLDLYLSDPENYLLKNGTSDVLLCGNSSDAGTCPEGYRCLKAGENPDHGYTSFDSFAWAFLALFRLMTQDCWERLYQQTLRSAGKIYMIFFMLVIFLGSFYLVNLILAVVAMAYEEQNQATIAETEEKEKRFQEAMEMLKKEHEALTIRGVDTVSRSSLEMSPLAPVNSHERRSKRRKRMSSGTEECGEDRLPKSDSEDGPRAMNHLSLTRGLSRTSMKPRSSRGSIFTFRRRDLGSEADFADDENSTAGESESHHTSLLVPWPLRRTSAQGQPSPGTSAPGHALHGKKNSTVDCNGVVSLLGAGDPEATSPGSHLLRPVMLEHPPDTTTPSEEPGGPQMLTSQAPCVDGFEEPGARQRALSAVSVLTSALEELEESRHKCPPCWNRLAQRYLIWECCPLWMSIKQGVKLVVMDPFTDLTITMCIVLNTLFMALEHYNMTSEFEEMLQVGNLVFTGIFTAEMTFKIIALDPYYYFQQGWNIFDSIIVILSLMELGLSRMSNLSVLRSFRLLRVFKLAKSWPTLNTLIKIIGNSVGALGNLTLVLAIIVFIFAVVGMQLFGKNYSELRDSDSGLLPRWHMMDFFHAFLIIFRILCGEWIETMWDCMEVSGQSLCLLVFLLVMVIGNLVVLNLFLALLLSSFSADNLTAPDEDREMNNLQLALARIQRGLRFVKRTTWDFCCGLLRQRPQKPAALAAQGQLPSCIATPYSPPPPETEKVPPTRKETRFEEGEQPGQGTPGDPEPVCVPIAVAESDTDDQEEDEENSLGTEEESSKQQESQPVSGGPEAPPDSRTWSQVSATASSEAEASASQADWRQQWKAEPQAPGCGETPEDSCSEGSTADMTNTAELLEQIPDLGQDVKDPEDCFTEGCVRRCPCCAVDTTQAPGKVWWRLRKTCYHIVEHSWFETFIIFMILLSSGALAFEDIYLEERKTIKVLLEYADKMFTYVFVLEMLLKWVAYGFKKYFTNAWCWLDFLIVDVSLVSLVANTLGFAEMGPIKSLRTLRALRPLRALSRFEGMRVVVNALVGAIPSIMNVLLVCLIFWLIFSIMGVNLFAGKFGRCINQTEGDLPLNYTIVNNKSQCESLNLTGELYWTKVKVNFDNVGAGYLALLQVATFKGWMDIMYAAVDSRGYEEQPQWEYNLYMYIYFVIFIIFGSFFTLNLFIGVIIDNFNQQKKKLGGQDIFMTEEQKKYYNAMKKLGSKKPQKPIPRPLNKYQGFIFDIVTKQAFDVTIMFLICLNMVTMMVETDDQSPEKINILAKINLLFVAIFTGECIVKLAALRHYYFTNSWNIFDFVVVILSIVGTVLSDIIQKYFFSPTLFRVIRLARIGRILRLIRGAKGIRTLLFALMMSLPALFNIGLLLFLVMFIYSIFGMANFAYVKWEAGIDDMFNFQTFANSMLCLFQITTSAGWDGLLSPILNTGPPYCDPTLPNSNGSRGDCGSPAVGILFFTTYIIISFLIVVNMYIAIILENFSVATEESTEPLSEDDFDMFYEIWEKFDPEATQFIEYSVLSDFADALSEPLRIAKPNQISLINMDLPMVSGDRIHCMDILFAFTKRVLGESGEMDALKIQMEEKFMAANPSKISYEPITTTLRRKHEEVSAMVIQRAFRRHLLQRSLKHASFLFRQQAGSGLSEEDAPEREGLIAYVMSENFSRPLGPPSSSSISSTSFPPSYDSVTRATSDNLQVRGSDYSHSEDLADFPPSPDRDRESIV
Experimental: as §1, §2, §3, §4

| SMILES | IC50 (human Nav1.7) [nM] | ratio of Nav1.7 potency:Nav 1.5 potency (human Nav1.5) |
| --- | --- | --- |
| N#Cc1cc(S(=O)(=O)Nc2nccs2)c(F)cc1NCC12CCCN1CCC2 [Ex1-10, 5-cyano-2-fluoro-4-[(tetrahydro-1H-pyrrolizin-7a(5H)-ylmethyl)amino]-N-(1,3-thiazol-2-yl)benzenesulfonamide] | 221 | 94 |
| O=S(=O)(Nc1nccs1)c1cc(Cl)c(NC[C@@]23CCCN2CC2(CC2)C3)cc1F (single isomer, unassigned) [Ex13-10-A] | 126 | 113 |
| O=S(=O)(Nc1nccs1)c1cc(Cl)c(NCC23CCCCN2CCC3)cc1F (single isomer, unassigned) [Ex17-7-A, (S or R) 5-chloro-2-fluoro-4-(((octahydroindolizin-8a-yl)methyl)amino)-N-(thiazol-2-yl)benzenesulfonamide] | 113 | 450 |
| N#Cc1cc(S(=O)(=O)Nc2ncns2)ccc1NCC12CCCN1CCC2 [Ex1-6, 3-cyano-4-[(tetrahydro-1H-pyrrolizin-7a(5H)-ylmethyl)amino]-N-(1,2,4-thiadiazol-5-yl)benzenesulfonamide] | 86 | 349 |
| N#Cc1cc(S(=O)(=O)Nc2ncc(Cl)s2)ccc1NCC12CCCN1CCC2 [Ex3-4, N-(5-chloro-1,3-thiazol-2-yl)-3-cyano-4-[(tetrahydro-1H-pyrrolizin-7a(5H)-ylmethyl)amino]benzene-sulfonamide] | 151 | 199 |
| O=S(=O)(Nc1nccs1)c1cc(Cl)c(NCC23CCCN2C(CF)CC3)cc1F (racemic) [Ex14-10, 5-chloro-2-fluoro-4-((((3S,7aS and 3R,7aR)-3-(fluoromethyl)hexahydro-1H-pyrrolizin-7a-yl)methyl)amino)-N-(thiazol-2-yl)benzenesulfonamide] | 59 | 509 |
| O=S(=O)(Nc1nccs1)c1cc(F)c(NCC23CCCN2CCC3)cc1Cl [Ex1-18, 2-chloro-5-fluoro-4-(((hexahydro-1H-pyrrolizin-7a-yl)methyl)amino)-N-(thiazol-2-yl)benzenesulfonamide] | 129 | 462 |
| O=S(=O)(Nc1cccc(F)n1)c1cc(F)c(NCC23CCCN2CCC3)cc1F [Ex2-4, 2,5-difluoro-N-(6-fluoropyridin-2-yl)-4-[(tetrahydro-1H-pyrrolizin-7a(5H)-ylmethyl)amino]benzene-sulfonamide] | 350 | 269 |
| CC1(C)CN2CCCC2(CNc2ccc(S(=O)(=O)Nc3nccs3)cc2C(F)(F)F)C1 (single isomer, unassigned) [Ex8-23-A, (R or S) 4-(((2,2-dimethylhexahydro-1H-pyrrolizin-7a-yl)methyl)-amino)-N-(thiazol-2-yl)-3-(trifluoromethyl)benzene-sulfonamide] | 172 | 175 |
| O=S(=O)(Nc1ncc(F)s1)c1ccc(NCC23CCCN2CC(F)C3)c(Cl)c1 (single isomer, unassigned) [Ex9-14-B, 3-chloro-4-((((2S,7aR or 2R,7aS)-2-fluoro-hexahydro-1H-pyrrolizin-7a-yl)methyl)amino)-N-(5-fluorothiazol-2-yl)-benzenesulfonamide] | 176 | 171 |
| O=S(=O)(Nc1nccs1)c1cc(Cl)c(NCC23CCCCN2CCC3)cc1F (single isomer, unassigned) [Ex17-7-B, (R or S) 5-chloro-2-fluoro-4-(((octahydroindolizin-8a-yl)methyl)amino)-N-(thiazol-2-yl)benzenesulfonamide] | 185 | 193 |
| O=S(=O)(Nc1ncc(F)s1)c1ccc(NCC23CCCN2CC(F)C3)c(Cl)c1 (single isomer, unassigned) [Ex9-14-A, 3-chloro-4-((((2R,7aS or 2S,7aR)-2-fluoro-hexahydro-1H-pyrrolizin-7a-yl)-methyl)amino)-N-(5-fluorothiazol-2-yl)-benzenesulfonamide] | 144 | 208 |

Now those with a lower IC50 (human Nav1.7), led by results:

| IC50 (human Nav1.7) [nM] | SMILES | ratio of Nav1.7 potency:Nav 1.5 potency (human Nav1.5) |
| --- | --- | --- |
| 10 | O=S(=O)(Nc1nccs1)c1cc(Cl)c(NC[C@]23CCCN2CC2(C3)OCCO2)cc1F (single isomer, unassigned) [Ex10-7-A] | 3074 |
| 9 | CCc1cc(S(=O)(=O)Nc2nccs2)c(F)cc1NC[C@@]12CCCN1C[C@H](Cc1ccc(OC)cc1)C2 (single isomer, unassigned) [Ex18-5-A] | 315 |
| 10 | CC1CN2CCCC2(CNc2cc(F)c(S(=O)(=O)Nc3ncc(Cl)s3)cc2Cl)C1 [Ex4-10, 5-chloro-N-(5-chlorothiazol-2-yl)-2-fluoro-4-((((2S,7aR and 2R,7aS)-2-methylhexahydro-1H-pyrrolizin-7a-yl)methyl)-amino)benzene-sulfonamide] | 2681 |
| 21 | COc1ccc([C@H]2CN3CCC[C@]3(CNc3cc(F)c(S(=O)(=O)Nc4nccs4)cc3Cl)C2)cc1 (single isomer, unassigned) [Ex16-12-B] | 708 |
| 52 | CC(Nc1cc(F)c(S(=O)(=O)Nc2nccs2)cc1Cl)C12CCCN1CCC2 (single isomer, unassigned) [Ex5-8, 5-chloro-2-fluoro-4-{[(R or S)1-(tetrahydro-1H-pyrrolizin-7a(5H)-yl)ethyl]amino}-N-(1,3-thiazol-2-yl)benzenesulfonamide] | 407 |
| 31 | CC1(C)CN2CCCC2(CNc2ccc(S(=O)(=O)Nc3nccs3)cc2C(F)(F)F)C1 (single isomer, unassigned) [Ex8-23-B, (S or R) 4-(((2,2-dimethylhexahydro-1H-pyrrolizin-7a-yl)methyl)amino)-N-(thiazol-2-yl)-3-(trifluoromethyl)-benzenesulfonamide] | 981 |
| 26 | Cc1cc(NCC23CCCN2CCC3)c(Cl)cc1S(=O)(=O)Nc1nccs1 [Ex12-7, 5-chloro-4-(((hexahydro-1H-pyrrolizin-7a-yl)methyl)amino)-2-methyl-N-(thiazol-2-yl)benzenesulfonamide] | 163 |
| 9 | CC1CN2CCCC2(CNc2cc(F)c(S(=O)(=O)Nc3nccs3)cc2Cl)C1 [Ex4-9, 5-chloro-2-fluoro-4-{[((2S,7aR and 2R,7aS)-2-methyl-tetrahydro-1H-pyrrolizin-7a(5H)-yl)methyl]amino}-N-(1,3-thiazol-2-yl)-benzenesulfonamide] |  |
| 5 | CCc1cc(S(=O)(=O)Nc2ncc(F)s2)c(F)cc1NCC12CCCN1CCC2 [Ex18-8, 5-ethyl-2-fluoro-N-(5-fluorothiazol-2-yl)-4-(((hexahydro-1H-pyrrolizin-7a-yl)-methyl)amino)-benzenesulfonamide] | 2595 |
| 19 | CCc1cc(S(=O)(=O)Nc2nccs2)c(F)cc1NCC12CCCN1CCC2 [Ex18-7, 5-ethyl-2-fluoro-4-(((hexahydro-1H-pyrrolizin-7a-yl)-methyl)amino)-N-(thiazol-2-yl)-benzenesulfonamide] | 672 |
| 55 | CCc1cc(S(=O)(=O)Nc2nccs2)c(F)cc1NCC12CCCN1CC(C)(C)C2 (single isomer, unassigned) [Ex18-9-A, (S or R)-4-(((2,2-dimethylhexahydro-1H-pyrrolizin-7a-yl)-methyl)-amino)-5-ethyl-2-fluoro-N-(thiazol-2-yl)-benzenesulfonamide] | 548 |
| 35 | CC1(C)CN2CCCC2(CNc2cc(F)c(S(=O)(=O)Nc3ncc(F)s3)cc2Cl)C1 (single isomer, unassigned) [Ex8-21-A, (R or S) 5-chloro-4-(((2,2-dimethylhexahydro-1H-pyrrolizin-7a-yl)methyl)amino)-2-fluoro-N-(5-fluorothiazol-2-yl)benzenesulfonamide] | 851 |
| 30 | CC1CCC2(CNc3ccc(S(=O)(=O)Nc4ncc(F)s4)cc3Cl)CCCN12 (single isomer, unassigned) [Ex11-12-B, 3-chloro-N-(5-fluorothiazol-2-yl)-4-((((3R,7aR or 3S,7aS)-3-methylhexahydro-1H-pyrrolizin-7a-yl)methyl)-amino)benzene-sulfonamide] | 1017 |
| 40 | CCc1cc(S(=O)(=O)Nc2nccs2)c(F)cc1NC[C@]12CCCN1C[C@@H](Cc1ccc(OC)cc1)C2 (single isomer, unassigned) [Ex18-5-B] | 359 |
| 40 | N#Cc1cc(S(=O)(=O)Nc2nccs2)ccc1NCC12CCCN1CCC2 [Ex2-2, 3-cyano-4-[(tetrahydro-1H-pyrrolizin-7a(5H)-ylmethyl)amino]-N-(1,3-thiazol-2-yl)benzenesulfonamide] | 746 |
| 51 | COc1ccc([C@@H]2CN3CCC[C@@]3(CNc3cc(F)c(S(=O)(=O)Nc4nccs4)cc3Cl)C2)cc1 (single isomer, unassigned) [Ex16-12-A] | 348 |
